Laboratory results: ChEMBL document CHEMBL1201862, “PubChem BioAssay data set” (2004)
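These data come from cells grown in 96-well plates and exposed to compound for 48 hours at five concentrations. GI50 is the concentration that inhibits growth by half.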 Activity calls are given as the source filed them. Rule as the data show it: active = GI50 up to about 1.1 µM and inactive = higher.

Key:
Assay in all cases: DTP human tumour cell line panel, 48 h
[1] = tested on: U-251
[2] = tested on: MOLT-4
[3] = tested on: NCI-H23
[4] = tested on: SK-MEL-28
[5] = tested on: MDA-N
[6] = tested on: EKVX
[7] = tested on: HL-60
[8] = tested on: 786-0
[9] = tested on: UACC-62
[10] = tested on: CCRF-CEM
[11] = tested on: LOX IMVI
[12] = tested on: OVCAR-5
[13] = tested on: SF-539
[14] = tested on: RXF 393
[15] = tested on: MDA-MB-435
[16] = tested on: MCF7
[17] = tested on: MDA-MB-231
[18] = tested on: SW-620
[19] = tested on: SK-OV-3

CCOC(=O)c1ccc(Nc2nc3cc(C(F)(F)F)ccc3nc2-c2ccccc2)cc1
GI50 [1]: 21.9 µM (inactive)
GI50 [2]: > 10 µM (inactive)
GI50 [3]: 40.3 µM (inactive)
GI50 [4]: > 100 µM (inactive)
GI50 [5]: > 100 µM (inactive)
GI50 [6]: 49.8 µM (inactive)
GI50 [7]: 50.2 µM (inactive)
GI50 [8]: 18.7 µM (inactive)
GI50 [9]: 11.1 µM (inactive)
GI50 [10]: 43.3 µM (inactive)
GI50 [11]: > 100 µM (inactive)
GI50 [12]: 30.1 µM (inactive)
GI50 [13]: 65.5 µM (inactive)
GI50 [14]: 21.4 µM (inactive)
GI50 [15]: 69.3 µM (inactive)
GI50 [16]: 19.8 µM (inactive)
GI50 [17]: 79.6 µM (inactive)
GI50 [18]: 63.2 µM (inactive)

CS(=O)(=O)N1CC(CI)c2ccc(O)cc21 (centres undefined)
GI50 [1]: 2.49 µM (inactive)
GI50 [2]: 0.809 µM (active)
GI50 [3]: 1.32 µM (inactive)
GI50 [4]: 3.23 µM (inactive)
GI50 [5]: 2.54 µM (inactive)
GI50 [6]: 3.74 µM (inactive)
GI50 [7]: 1.79 µM (inactive)
GI50 [8]: 3.24 µM (inactive)
GI50 [10]: 0.807 µM (active)
GI50 [11]: 3.21 µM (inactive)
GI50 [12]: 2.29 µM (inactive)
GI50 [13]: 2.99 µM (inactive)
GI50 [14]: 1.07 µM (active)
GI50 [15]: 1.89 µM (inactive)
GI50 [16]: 0.925 µM (active)
GI50 [17]: 2.84 µM (inactive)
GI50 [18]: 2.18 µM (inactive)

FC(F)(F)c1n[nH]c(SCc2ccc(Cl)cc2)n1
GI50 [1]: > 100 µM (inactive)
GI50 [2]: > 100 µM (inactive)
GI50 [3]: > 100 µM (inactive)
GI50 [4]: > 100 µM (inactive)
GI50 [5]: > 100 µM (inactive)
GI50 [6]: > 100 µM (inactive)
GI50 [7]: > 100 µM (inactive)
GI50 [8]: > 100 µM (inactive)
GI50 [9]: > 100 µM (inactive)
GI50 [11]: > 100 µM (inactive)
GI50 [12]: > 100 µM (inactive)
GI50 [13]: > 100 µM (inactive)
GI50 [14]: > 100 µM (inactive)
GI50 [15]: > 100 µM (inactive)
GI50 [16]: > 100 µM (inactive)
GI50 [19]: > 100 µM (inactive)
GI50 [17]: > 100 µM (inactive)
GI50 [18]: > 100 µM (inactive)

ClC(Cl)(Cl)C1CCOC1n1nc2ccccc2n1 (centres undefined)
GI50 [1]: > 100 µM (inactive)
GI50 [2]: > 100 µM (inactive)
GI50 [3]: > 100 µM (inactive)
GI50 [5]: > 100 µM (inactive)
GI50 [6]: > 100 µM (inactive)
GI50 [7]: 49.9 µM (inactive)
GI50 [8]: > 100 µM (inactive)
GI50 [9]: > 100 µM (inactive)
GI50 [10]: > 100 µM (inactive)
GI50 [12]: > 100 µM (inactive)
GI50 [13]: > 100 µM (inactive)
GI50 [14]: > 100 µM (inactive)
GI50 [15]: > 100 µM (inactive)
GI50 [16]: > 100 µM (inactive)
GI50 [19]: > 100 µM (inactive)
GI50 [17]: > 100 µM (inactive)
